ChEMBL document CHEMBL4334495, “Design and Biological Evaluation of m-Xylene Thioether-Stapled Short Helical Peptides Targeting the HIV-1 gp41 Hexameric Coiled-Coil Fusion Complex” (J Med Chem, 2019)
The source made the active and inactive calls. No cut-off for these calls is given here. Starred links: 1 amine or outer side, 2 acyl side, 3 side chain; linkers in the order of their positions; H or OH if unused. Positions of bridges follow the written chain, without caps; N, C: chain ends. Non-standard residues stand in square brackets, D forms with d. Residues, ends and D or L forms follow the SMILES beside them. ξ: configuration not given here. mXylylene = c1cc(C[*:1])cc(C[*:2])c1; ξhCys = NC(CCS)C(=O)O

Assays:
[1] = target: Envelope glycoprotein gp160 (Human immunodeficiency virus 1) (UniProt Q6QLK5); assay: Binding affinity to HIV1 GP41 using GP41 NHR derived N36 peptide assessed as formation of secondary structure at 10 uM incubated for 30 mins by CD spectroscopy
Sequence of Envelope glycoprotein gp160 (Human immunodeficiency virus 1) (Q6QLK5 1-814): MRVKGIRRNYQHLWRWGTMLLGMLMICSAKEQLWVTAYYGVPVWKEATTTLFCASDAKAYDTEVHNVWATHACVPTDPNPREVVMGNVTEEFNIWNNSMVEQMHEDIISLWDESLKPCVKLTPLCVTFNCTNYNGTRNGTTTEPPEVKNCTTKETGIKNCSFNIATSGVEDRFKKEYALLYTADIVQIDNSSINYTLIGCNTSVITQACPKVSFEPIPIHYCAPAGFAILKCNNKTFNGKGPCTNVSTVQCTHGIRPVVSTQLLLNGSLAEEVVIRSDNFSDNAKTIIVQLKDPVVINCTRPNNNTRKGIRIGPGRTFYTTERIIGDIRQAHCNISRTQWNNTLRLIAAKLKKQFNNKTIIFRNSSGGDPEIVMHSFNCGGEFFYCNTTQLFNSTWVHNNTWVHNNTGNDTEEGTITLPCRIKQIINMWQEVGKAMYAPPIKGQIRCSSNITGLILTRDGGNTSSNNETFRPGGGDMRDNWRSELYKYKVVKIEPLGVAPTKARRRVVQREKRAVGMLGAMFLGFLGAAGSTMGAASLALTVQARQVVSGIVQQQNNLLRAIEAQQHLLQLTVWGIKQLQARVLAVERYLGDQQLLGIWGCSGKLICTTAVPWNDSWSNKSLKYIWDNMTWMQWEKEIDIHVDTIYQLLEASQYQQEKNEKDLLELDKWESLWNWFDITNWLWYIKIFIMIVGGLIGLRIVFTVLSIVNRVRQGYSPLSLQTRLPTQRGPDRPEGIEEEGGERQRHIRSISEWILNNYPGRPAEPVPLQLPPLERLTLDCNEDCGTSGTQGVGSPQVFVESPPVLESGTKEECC

[2] = system: Human immunodeficiency virus 1; assay: (§1) Ratio of EC50 for antiviral activity against X4 tropic HIV-1 subtype-B 3B infected in human MT2 cells or CEMx174 5.25 M7 cells in absence of HP23 to EC50 for antiviral activity against X4 tropic HIV-1 subtype-B 3B infected in human MT2 cells or CEMx174 5.25 M7 cells at 12:1 compound to HP23 ratio; assay type: functional, HIV-1 group M
[3] = system: Human immunodeficiency virus 1; assay: Synergistic antiviral activity against R5 tropic HIV-1 subtype-B Bal infected in human MT2 cells or CEMx174 5.25 M7 cells assessed as reduction in p24 Gag protein production by measuring combination index at 3:1 ratio of hCS6ERE to compound measured at 4 days post-infection by ELISA; assay type: functional, HIV-1 group M
[4] = system: Human immunodeficiency virus 1; assay: Synergistic antiviral activity against R5 tropic HIV-1 subtype-B Bal infected in human MT2 cells or CEMx174 5.25 M7 cells assessed as reduction in p24 Gag protein production by measuring combination index at 6:1 ratio of hCS6ERE to compound measured at 4 days post-infection by ELISA; assay type: functional, HIV-1 group M
[5] = system: Human immunodeficiency virus 1; assay: Synergistic antiviral activity against R5 tropic HIV-1 subtype-B Bal infected in human MT2 cells or CEMx174 5.25 M7 cells assessed as reduction in p24 Gag protein production by measuring combination index at 12:1 ratio of hCS6ERE to compound measured at 4 days post-infection by ELISA; assay type: functional, HIV-1 group M
[6] = system: Human immunodeficiency virus 1; assay: Antiviral activity against HIV1 NL4-3 infected in human MT2 cells or CEMx174 5.25 M7 cells assessed as reduction in p24 Gag protein production at 20:1 compound to HP23 ratio measured at 4 days post-infection by ELISA; assay type: functional, organism-based; conditions: Human immunodeficiency virus 1, NL4-3, 96 h
[7] = system: Human immunodeficiency virus 1; assay: (§2) Ratio of EC50 for antiviral activity against HIV1 NL4-3 infected in human MT2 cells or CEMx174 5.25 M7 cells in absence of HP23 to EC50 for antiviral activity against HIV1 NL4-3 infected in human MT2 cells or CEMx174 5.25 M7 cells at 20:1 compound to HP23 ratio; assay type: functional
[8] = system: Human immunodeficiency virus 1; assay: Antiviral activity against T20 resistant HIV1 NL4-3 harboring with V38E/N42S mutant infected in human MT2 cells or CEMx174 5.25 M7 cells assessed as reduction in p24 Gag protein production at 3500:1 compound to HP23 ratio measured at 4 days post-infection by ELISA; assay type: functional, organism-based
[9] = system: Human immunodeficiency virus 1; assay: as §2, with “against T20 resistant” for “against”, “NL4-3 harboring with V38E/N42S mutant” for “NL4-3”, “7000:1” for “20:1”; assay type: functional
[10] = system: Human immunodeficiency virus 1; assay: as §2, with “against T20 resistant” for “against”, “NL4-3 harboring with V38E/N42S mutant” for “NL4-3”, “14000:1” for “20:1”; assay type: functional
[11] = system: Human immunodeficiency virus 1; assay: Antiviral activity against T20 resistant HIV1 NL4-3 harboring with V38E/N42T mutant infected in human MT2 cells or CEMx174 5.25 M7 cells assessed as reduction in p24 Gag protein production at 300:1 compound to HP23 ratio measured at 4 days post-infection by ELISA; assay type: functional, organism-based
[12] = system: Human immunodeficiency virus 1; assay: (§3) Ratio of EC50 for antiviral activity against T20 resistant HIV1 NL4-3 harboring with V38E/N42T mutant infected in human MT2 cells or CEMx174 5.25 M7 cells in absence of HP23 to EC50 for Antiviral activity against T20 resistant HIV1 NL4-3 harboring with V38E/N42T mutant infected in human MT2 cells or CEMx174 5.25 M7 cells at 600:1 compound to HP23 ratio; assay type: functional
[13] = system: Human immunodeficiency virus 1; assay: Antiviral activity against T2635 resistant HIV1 LAI harboring Q66R mutant infected in human MT2 cells or CEMx174 5.25 M7 cells assessed as reduction in p24 Gag protein production at 25:1 ratio of compound to HP23 measured at 4 days post infection by ELISA; assay type: functional, organism-based, M:B_Lai
[14] = system: Human immunodeficiency virus 1; assay: Antiviral activity against T2635 resistant HIV1 LAI harboring Q66R mutant infected in human MT2 cells or CEMx174 5.25 M7 cells assessed as reduction in p24 Gag protein production at 50:1 ratio of compound to HP23 measured at 4 days post infection by ELISA; assay type: functional, organism-based, M:B_Lai
[15] = system: Human immunodeficiency virus 1; assay: as §3, with “T2635” for “T20”, “LAI” for “NL4-3”, “Q66R” for “with V38E/N42T”, “antiviral” for “EC50 for Antiviral”, “25:1 ratio of” for “600:1”, “HP23” for “HP23 ratio”; assay type: functional, M:B_Lai
[16] = Metabolic stability in rat plasma assessed as parent compound remaining at 3 to 100 uM after 4 hrs by RP-HPLC analysis; assay type: ADME, cell-free; conditions: read-out: Stability
[17] = Metabolic stability in rat liver homogenates assessed as parent compound remaining at 3 to 100 uM after 2 hrs by RP-HPLC analysis; assay type: ADME, tissue-based; conditions: read-out: Stability
[18] = system: Human immunodeficiency virus 1; assay: as §1, with “hCS6ERE” for “HP23”, “6:1 ratio of hCS6ERE to” for “12:1”, “compound” for “compound to HP23 ratio”; assay type: functional, HIV-1 group M
[19] = system: Human immunodeficiency virus 1; assay: as §1, with “hCS6ERE” for “HP23”, “12:1 ratio of hCS6ERE to” for “12:1”, “compound” for “compound to HP23 ratio”; assay type: functional, HIV-1 group M
[20] = system: Human immunodeficiency virus 1; assay: Antiviral activity against HIV1 NL4-3 infected in human MT2 cells or CEMx174 5.25 M7 cells assessed as reduction in p24 Gag protein production at 20:1 hCS6ERE to compound ratio measured at 4 days post-infection by ELISA; assay type: functional, organism-based; conditions: Human immunodeficiency virus 1, NL4-3, 96 h
[21] = system: Human immunodeficiency virus 1; assay: (§4) Ratio of EC50 for antiviral activity against HIV1 NL4-3 infected in human MT2 cells or CEMx174 5.25 M7 cells in absence of hCS6ERE to EC50 for antiviral activity against HIV1 NL4-3 infected in human MT2 cells or CEMx174 5.25 M7 cells at 20:1 hCS6ERE to compound ratio; assay type: functional
[22] = system: Human immunodeficiency virus 1; assay: as §3, with “V38E/N42S” for “V38E/N42T”, “hCS6ERE” for “HP23”, “antiviral” for “Antiviral”, “3500:1 hCS6ERE to” for “600:1”, “compound” for “compound to HP23”; assay type: functional
[23] = system: Human immunodeficiency virus 1; assay: as §3, with “V38E/N42S” for “V38E/N42T”, “hCS6ERE” for “HP23”, “antiviral” for “Antiviral”, “7000:1 hCS6ERE to” for “600:1”, “compound” for “compound to HP23”; assay type: functional
[24] = system: Human immunodeficiency virus 1; assay: as §4, with “against T2635 resistant” for “against”, “LAI harboring Q66R mutant” for “NL4-3”, “to” for “to EC50 for”, “12.5:1 ratio of” for “20:1”, “compound” for “compound ratio”; assay type: functional, M:B_Lai

**Q.** With `CC[C@H](C)[C@H](NC(C)=O)C(=O)N[C@@H](CCC(=O)O)C(=O)N[C@@H](CCC(=O)O)C(=O)N[C@@H](CC(C)C)C(=O)N[C@H](C(=O)NC1CCSCc2cccc(c2)CSCCC(C(=O)N[C@@H](CCC(N)=O)C(=O)N[C@@H](CCC(N)=O)C(=O)N[C@@H](CCCNC(=N)N)C(=O)N[C@@H](CCCCN)C(=O)N[C@@H](CC(N)=O)C(=O)N[C@@H](CCC(=O)O)C(=O)N[C@@H](CCC(=O)O)C(=O)N[C@@H](C)C(=O)N[C@@H](CC(C)C)C(=O)N[C@@H](CCCNC(=N)N)C(=O)N[C@@H](CCC(=O)O)C(=O)N[C@@H](CC(C)C)C(N)=O)NC(=O)[C@H](CCC(N)=O)NC(=O)[C@H](C)NC(=O)[C@H](C)NC1=O)[C@@H](C)CC` (some centres undefined) (Ac-IEELI[ξhCys]AAQ[ξhCys]QQRKNEEALREL-NH2; linker 6-10 via mXylylene) as the compound, how does the Activity [1] read?
**A.** Active

**Q.** And the “Ratio EC50” value [2]?
**A.** 2.4

**Q.** And the CI [3]?
**A.** 0.8

**Q.** And the CI [4]?
**A.** 0.8

**Q.** What about the CI [5] of the same compound?
**A.** 0.6

**Q.** And the EC50 [6]?
**A.** 14 nM

**Q.** What about the “Ratio EC50” value [7] of the same compound?
**A.** 1.6

**Q.** And the EC50 [8]?
**A.** 2040 nM

**Q.** And the “Ratio EC50” value [9]?
**A.** 2.7

**Q.** What about the “Ratio EC50” value [10] of the same compound?
**A.** 2.2

**Q.** What about the EC50 [11] of the same compound?
**A.** 433 nM

**Q.** And the “Ratio EC50” value [12]?
**A.** 2.2

**Q.** What about the EC50 [13] of the same compound?
**A.** 39.5 nM

**Q.** What about the EC50 [14] of the same compound?
**A.** 26.3 nM

**Q.** And the “Ratio EC50” value [15]?
**A.** 2.2

**Q.** And the remaining at 4 h, up to 100 µM [16]?
**A.** 100%

**Q.** And the remaining at 2 h, up to 100 µM [17]?
**A.** 27.4%

**Q.** Which results are given for H-EMTWEEWEKKIEEYTKKIEEILK-OH?
**A.** Ratio EC50 [18]: 1.9; Ratio EC50 [19]: 2.8; EC50 [20]: 0.7 nM; Ratio EC50 [21]: 4.9; Ratio EC50 [22]: 2.3; Ratio EC50 [23]: 3.5; Ratio EC50 [24]: 2.7
